The assay addresses Metabotropic glutamate receptor 4 (Rattus norvegicus) (UniProt P31423). Briefly: PubChem AID 623906. As to conditions: rat mGlu4 cells, thallium flux, glutamate CRC fold shift, at 10 µM, stronger effect = higher value.

Chain of Metabotropic glutamate receptor 4 (Rattus norvegicus) (P31423 whole entry, looked up): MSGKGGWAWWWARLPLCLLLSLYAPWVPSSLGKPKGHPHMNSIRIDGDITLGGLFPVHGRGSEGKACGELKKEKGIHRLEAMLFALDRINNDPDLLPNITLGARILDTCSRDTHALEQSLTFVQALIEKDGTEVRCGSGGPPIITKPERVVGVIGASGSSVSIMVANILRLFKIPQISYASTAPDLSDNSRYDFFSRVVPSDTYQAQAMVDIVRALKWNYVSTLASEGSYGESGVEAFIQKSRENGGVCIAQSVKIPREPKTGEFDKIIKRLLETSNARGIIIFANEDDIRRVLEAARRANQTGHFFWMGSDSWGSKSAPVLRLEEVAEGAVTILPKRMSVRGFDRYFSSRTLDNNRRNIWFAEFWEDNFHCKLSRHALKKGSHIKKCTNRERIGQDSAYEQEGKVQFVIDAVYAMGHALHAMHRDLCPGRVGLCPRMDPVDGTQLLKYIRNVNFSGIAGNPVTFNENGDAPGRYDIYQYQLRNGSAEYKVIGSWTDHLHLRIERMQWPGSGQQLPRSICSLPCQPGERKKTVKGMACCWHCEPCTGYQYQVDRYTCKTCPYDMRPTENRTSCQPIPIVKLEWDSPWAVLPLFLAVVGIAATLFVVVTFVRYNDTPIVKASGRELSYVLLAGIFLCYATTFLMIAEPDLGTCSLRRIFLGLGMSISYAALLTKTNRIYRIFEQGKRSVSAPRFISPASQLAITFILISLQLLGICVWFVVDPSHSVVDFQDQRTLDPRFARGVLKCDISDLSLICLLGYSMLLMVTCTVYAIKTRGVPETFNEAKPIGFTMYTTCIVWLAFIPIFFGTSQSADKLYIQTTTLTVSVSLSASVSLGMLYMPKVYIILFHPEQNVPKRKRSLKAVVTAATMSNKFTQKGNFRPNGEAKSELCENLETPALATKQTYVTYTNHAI

Consider `O=C(Nc1cccc(Cl)c1)c1ccccn1`, for which the fold shift was 16.5. For the same compound, the glutamate max response (glutamate max with compound) stood at 96.9%.

The record behind these values is PubChem BioAssay AID623906 (Vanderbilt Specialized Chemistry Center, 2012).
